Measurements: patent US12528797B2, “Heterocyclic compounds for medical treatment” (C4 Therapeutics, Inc., priority 2019, dated 2026)
pKd: −log10 of the molar value.

Target: hCereblon(M1-L442)_hDDB1(M1-H1140) (Homo sapiens (Human), UniProt Q96SW2)
Test: Fluorescence direct binding (tryptophan fluorescence titration)
Conditions: 20° C., excitation 280 nm, emission 340 nm, assay buffer 50 mM Hepes 7.4 200 mM NaCl; read-out: Fluorescence h-Cereblon_DDB1 Mean Kd_EQ
Experimental: Fluorescence Direct Binding Protocol
Determination of the affinities of compounds to protein containing one or more tryptophan is measurable by monitoring the fluorescence emission in direct mode. The measurements depending on the protein available amounts are performed either manually in a cuvette on ISS-PC1 photon counting spectrofluorometer or automatically in well plates on a fluorescence plate reader device. Fluorescence titrations are performed at 20° C. in the chosen binding assay buffer by using a defined constant protein concentration against ligand concentration variations. Small aliquots of known ligand concentration solubilized in DMSO were added and the fluorescence, excited at 280 nm, was recorded at 340 nm. The fluorescence intensity was corrected for protein dilution and for the filter effect (Birdsall et al.). The corrected fluorescence intensity was plotted against the ligand concentration and fitted using a four-parameter sigmoidal function, from which the equilibrium dissociation constant Kd was computed using the law of mass action assuming a 1:1 protein-ligand complex (Eftink, 1997).
• 1) Optimization of measurement parameters to minimize protein consumption and to minimize the dilution effect and the DMSO content • 2) Titration measurements of the protein against ligand by at least 12 titration steps to obtain a good s-curve fit • 3) Repeat the same titration measurements with the ligand alone to enable correction • 4) Check the stability of the protein once by titration against DMSO alone • 5) Determination of the molar extinction coefficients of the ligand at 280 and 340 nm with help of an UV-spectrophotometer • 6) Use Excel template for the correction of the measured raw data Use GraphPad Prism software for the quadratic binding fit and the KD evaluation.

Sequence of hCereblon(M1-L442)_hDDB1(M1-H1140) (Q96SW2 whole entry): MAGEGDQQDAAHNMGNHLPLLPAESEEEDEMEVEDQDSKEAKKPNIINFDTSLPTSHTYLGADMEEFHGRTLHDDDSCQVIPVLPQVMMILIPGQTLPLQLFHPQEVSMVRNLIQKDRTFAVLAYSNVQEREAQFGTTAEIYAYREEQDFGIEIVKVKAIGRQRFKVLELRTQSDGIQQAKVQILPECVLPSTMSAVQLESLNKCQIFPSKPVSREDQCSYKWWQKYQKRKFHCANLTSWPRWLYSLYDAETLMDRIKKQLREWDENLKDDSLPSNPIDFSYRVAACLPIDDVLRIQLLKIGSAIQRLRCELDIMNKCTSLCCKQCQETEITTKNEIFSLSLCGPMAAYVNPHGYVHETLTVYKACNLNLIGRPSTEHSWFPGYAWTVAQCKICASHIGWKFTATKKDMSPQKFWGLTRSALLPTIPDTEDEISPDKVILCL
Sequence of hCereblon(M1-L442)_hDDB1(M1-H1140) (Q16531 whole entry partner): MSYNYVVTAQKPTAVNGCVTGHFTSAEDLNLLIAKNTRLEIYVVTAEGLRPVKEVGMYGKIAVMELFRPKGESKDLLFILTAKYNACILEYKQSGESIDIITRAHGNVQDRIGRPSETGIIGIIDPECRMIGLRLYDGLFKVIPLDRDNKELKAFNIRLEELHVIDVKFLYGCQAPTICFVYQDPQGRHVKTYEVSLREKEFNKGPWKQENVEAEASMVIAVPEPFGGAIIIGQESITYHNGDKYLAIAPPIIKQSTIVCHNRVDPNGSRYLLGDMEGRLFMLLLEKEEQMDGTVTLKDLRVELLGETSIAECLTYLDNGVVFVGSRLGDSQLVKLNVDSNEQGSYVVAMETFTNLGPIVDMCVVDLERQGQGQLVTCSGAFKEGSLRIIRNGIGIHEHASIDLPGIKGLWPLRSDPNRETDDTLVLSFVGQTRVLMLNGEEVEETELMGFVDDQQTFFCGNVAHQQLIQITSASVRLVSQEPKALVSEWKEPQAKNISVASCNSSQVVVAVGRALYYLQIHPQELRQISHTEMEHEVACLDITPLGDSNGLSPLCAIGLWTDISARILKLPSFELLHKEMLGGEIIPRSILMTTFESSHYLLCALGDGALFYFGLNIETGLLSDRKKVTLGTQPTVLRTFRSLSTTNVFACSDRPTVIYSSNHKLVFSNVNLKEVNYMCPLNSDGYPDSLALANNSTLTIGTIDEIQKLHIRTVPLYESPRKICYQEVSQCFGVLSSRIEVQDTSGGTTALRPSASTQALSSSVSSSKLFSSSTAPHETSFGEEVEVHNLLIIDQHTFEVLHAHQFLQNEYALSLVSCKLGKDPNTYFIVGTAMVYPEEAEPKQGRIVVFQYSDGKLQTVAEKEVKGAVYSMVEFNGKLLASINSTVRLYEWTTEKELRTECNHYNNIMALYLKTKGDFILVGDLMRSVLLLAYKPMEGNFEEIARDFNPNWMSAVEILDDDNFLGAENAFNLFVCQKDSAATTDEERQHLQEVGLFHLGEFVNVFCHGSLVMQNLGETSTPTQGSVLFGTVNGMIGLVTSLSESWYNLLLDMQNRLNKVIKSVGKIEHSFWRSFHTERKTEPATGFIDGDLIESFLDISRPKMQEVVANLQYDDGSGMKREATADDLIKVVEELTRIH

| pKd | Compound |
| --- | --- |
| 8.40 | O=C(Nc1ccc2[nH]c(=O)oc2c1)c1ccccc1 [Example 1, N-(2-Oxo-3H-1,3-benzoxazol-6-yl)benzamide] |
| 8.15 | O=C1Cc2cc(NC(=O)c3ccco3)ccc2N1 [Example 2, N-(2-Oxoindolin-5-yl)furan-2-carboxamide] |
| 7.85 | Cc1ccccc1OCC(=O)Nc1ccc2[nH]c(=O)sc2c1 [Example 3, 2-(2-Methylphenoxy)-N-(2-oxo-3H-1,3-benzothiazol-6-yl)acetamide] |
| 8.70 | CNC(=O)c1ccc2c(c1)nc(C(C)C)n2-c1ccc2c(c1)NC(=O)C2 [Example 4, 2-Isopropyl-N-methyl-1-(2-oxoindolin-6-yl)benzimidazole-5-carboxamide] |
| 8.52 | CNC(=O)c1ccc2c(c1)nc(C(C)C)n2-c1ccc2c(c1)CC(=O)N2 [Example 5, 2-Isopropyl-N-methyl-1-(2-oxoindolin-5-yl)benzimidazole-5-carboxamide] |
| > 9.00 | Nc1ccccc1Nc1ccc2[nH]c(=O)sc2c1 [Example 6, 6-(2-Aminoanilino)-3H-1,3-benzothiazol-2-one] |
| 7.72 | CC(C)c1nc2ccccc2n1-c1ccc2[nH]c(=O)sc2c1 [Example 7, 6-(2-Isopropylbenzimidazol-1-yl)-3H-1,3-benzothiazol-2-one] |
| 8.10 | Nc1ccccc1Nc1ccc2[nH]c(=O)oc2c1 [Example 8, 6-(2-Aminoanilino)-3H-1,3-benzoxazol-2-one] |
| 6.97 | CC(C)c1nc2ccccc2n1-c1ccc2[nH]c(=O)oc2c1 [Example 9, 6-(2-Isopropylbenzimidazol-1-yl)-3H-1,3-benzoxazol-2-one] |
| 7.04 | O=C1Cc2cc(C(=O)Nc3ccccc3)ccc2N1 [Example 10, 2-Oxo-N-phenylindoline-5-carboxamide] |
| 7.27 | O=C(Nc1ccccc1)c1ccc2[nH]c(=O)oc2c1 [Example 11, 2-Oxo-N-phenyl-3H-1,3-benzoxazole-6-carboxamide] |
| 8.22 | CC(=O)N1CCC(NC(=O)c2ccc3[nH]c(=O)oc3c2)CC1 [Example 12, N-(1-Acetyl-4-piperidyl)-2-oxo-3H-1,3-benzoxazole-6-carboxamide] |
| 8.40 | O=C(c1ccc2[nH]c(=O)oc2c1)N1CCc2ccccc21 [Example 13, 6-(Indoline-1-carbonyl)-3H-1,3-benzoxazol-2-one] |
| 7.62 | O=C(c1ccc2[nH]c(=O)oc2c1)N1CCc2cccnc21 [Example 14, 6-(2,3-Dihydropyrrolo[2,3-b]pyridine-1-carbonyl)-3H-1,3-benzoxazol-2-one] |
| 7.10 | O=C(Nc1ccccc1)c1ccc2[nH]c(=O)sc2c1 [Example 15, 2-Oxo-N-phenyl-3H-1,3-benzothiazole-6-carboxamide] |
| 7.55 | O=C(c1ccc2[nH]c(=O)sc2c1)N1CCc2ccccc21 [Example 16, 6-(Indoline-1-carbonyl)-3H-1,3-benzothiazol-2-one] |
| 7.82 | O=C1Cc2cc(C(=O)N3CCc4ccccc43)ccc2N1 [Example 17, 5-(Indoline-1-carbonyl)indolin-2-one] |
| 7.62 | O=C(Nc1ccccc1)c1cnc2[nH]c(=O)oc2c1 [Example 18, 2-Oxo-N-phenyl-3H-oxazolo[4,5-b]pyridine-6-carboxamide] |
| 8.15 | CC(=O)N1CCC(NC(=O)c2cnc3[nH]c(=O)oc3c2)CC1 [Example 19, N-(1-Acetyl-4-piperidyl)-2-oxo-3H-oxazolo[4,5-b]pyridine-6-carboxamide] |
| 7.89 | O=C1Cc2cc(C(=O)N3CCc4ccccc43)cnc2N1 [Example 20, 5-(Indoline-1-carbonyl)-1,3-dihydropyrrolo[2,3-b]pyridin-2-one] |
| > 9.00 | CC(C)c1nc2ccccc2n1-c1ccc2c(c1)C(F)(F)C(=O)N2 [Example 21, 3,3-Difluoro-5-(2-isopropylbenzimidazol-1-yl)indolin-2-one] |
| 8.70 | O=C(c1ccc2[nH]c(=O)oc2c1)N1Cc2cccc(O)c2C1 [Example 22, 6-(4-Hydroxyisoindoline-2-carbonyl)-3H-1,3-benzoxazol-2-one] |
| 7.85 | O=C(c1ccc2[nH]c(=O)oc2c1)N1Cc2cccc([N+](=O)[O-])c2C1 [Example 23, 6-(4-Nitroisoindoline-2-carbonyl)-3H-1,3-benzoxazol-2-one] |
| 7.55 | O=C(Nc1ccc2c(c1)C(F)(F)C(=O)N2)C1CCCc2ccccc21 (stereo not drawn) [Example 24, N-(3,3-difluoro-2-oxo-indolin-5-yl)tetralin-1-carboxamide] |
| 7.28 | O=C(Nc1ccc2c(c1)C(F)(F)C(=O)N2)c1coc2ccccc12 [Example 25, N-(3,3-difluoro-2-oxo-indolin-5-yl)benzofuran-3-carboxamide] |
| 8.15 | CNC(=O)c1ccc2c(c1)nc(C(C)C)n2-c1cnc2c(c1)CC(=O)N2 [Example 26, 2-Isopropyl-N-methyl-1-(2-oxo-1,3-dihydropyrrolo[2,3-b]pyridin-5-yl)benzimidazole-5-carboxamide] |
| > 9.00 | CC(C)c1nc2ccccc2n1-c1cnc2c(c1)CC(=O)N2 [Example 27, 5-(2-Isopropylbenzimidazol-1-yl)-1,3-dihydropyrrolo[2,3-b]pyridin-2-one] |
